{"source": "patent US20140066410A1", "about": "“INHIBITORS OF BROMODOMAINS AS MODULATORS OF GENE EXPRESSION” (ICAHN SCHOOL OF MEDICINE AT MOUNT SINAI, priority 2011, published 2014)", "key": {"p53 [1]": {"tested_on": "p53", "experiment": "Western blot of doxorubicin-treated U20S cells", "format": "cell-based", "method": "U20S cells were harvested cells and lysed in lysis buffer (20 mM Tris (pH 8.0), 150 mM NaCl, 1 mM EGTA, 1% Triton X-100, and 50 mM NaF) containing protease inhibitor cocktail (Sigma). The cells were sonicated and spun down at 14,000 rpm for 30 min at 4° C. After protein estimation, 30-50 micrograms of lysates were subjected to SDS-PAGE, transferred onto nitrocellulose membranes, blocked with 5% milk/PBS and blotted with a primary antibody. Horse radish peroxidase-labeled secondary antibodies (goat anti-Mouse or anti-Rabbit) were added for 60 min at room temperature, and the blots were washed with TBS (20 mM Tris, 150 mM Nacl, and 0.05% tween −20) and subjected to autoradiography after development of reaction by ECL (GE health care).\nThe biochemical effects of ischemin on p53 stability and function as transcription factor was examined. U20S cells were incubated in the presence of doxorubicin with or without ischemin at concentration of 50 or 100 μM for 24 hours. Subsequently, cellular proteins were subjected to western blot analysis (as described above).\nAs a transcription factor, p53 ability to activate gene expression is also dependent upon chromatin modifications. Since CBP acetylates both histones and p53, the possible changes of epigenetic marks on p53 and global histones in presence of ischemin was evaluated."}, "p53 [2]": {"tested_on": "p53", "experiment": "p21 luciferase assay (p53 inhibition) in U20S cells upon doxorubicin", "format": "cell-based", "method": "U20S Cells were transfected with p21 luciferase (1 μg) and renilla luciferase (100 ng) vectors in 6 well plate format using Fugene 6 (Roche). Briefly, total of 1.1 micrograms of vector was incubated with […] of Fugene 6 reagent for 30 min. After 3-4 hours of transfection, cell were treated with compounds for overnight, and then exposed to 300 nanogram of doxorubicin for next 24 hours. In these experiments, DMSO, transfected cells with empty vector and cell without doxorubicin were used as controls. DMSO concentration is maintained at 0.01%. Transfected cells with doxorubicin treatment were used as positive control. The luciferase activity was estimated by following the manufacturer's instruction (Promega) in a luminometer. […] The inhibitory activity (IC50) of a small molecule on p21 luciferase activity was obtained from the average of three biological replicates using PRISM software."}, "caspase 3/7": {"tested_on": "caspase 3/7", "experiment": "Caspase 3/7 assay in cardiomyocytes", "format": "cell-based, rat", "conditions": "doxorubicin-induced", "method": "Neonatal rat ventricular myocytes (NRVMs) were isolated by enzymatic dissociation of cardiac ventricle from 1-to-2-day-old Sprague-Dawley pups using the Worthington neonatal cardiomyocyte isolation system (Worthington). Briefly, the pups were anesthetized and their hearts were excised. The ventricular tissues were minced in ice cold HBSS and then digested with trypsin overnight at 4° C. followed by collagenase treatment for 45 min at 37° C. Cells were collected by centrifugation at 800 rpm for 5 min and subsequently underwent two rounds of preplating on culture dishes to minimize nonmyocyte contamination. The enriched cardiomyocytes were cultured in DMEM/F12 nutrient mixture (Invitrogen) with 10% horse serum and 5% fetal calf serum (Invitrogen). After 48 hours, the medium was changed to DMEM/F12 containing 1% insulin, transferrin, and selenium media supplement (ITS; Invitrogen) and 0.1% BSA.\nCaspase 3/7 and TUNEL assays were performed to assess inhibition of apoptosis by ischemin. Caspase assay and TUNEL assays were performed using Caspase-Glo 3/7 and DeadEnd kits from Promega. Caspase assay was performed on live cardiomyocytes in 96 wells plate on three different days. Similarly, TUNEL assay was performed in triplicate on three different days. […] After treatment with compounds overnight and then doxorubicin for 24 hours, the intensities of luminecnce were read. […]"}, "CBP BRD": {"target": "CBP BRD (Homo sapiens, UniProt Q92793)", "sequence (Q92793 1085-1192 limits assumed)": "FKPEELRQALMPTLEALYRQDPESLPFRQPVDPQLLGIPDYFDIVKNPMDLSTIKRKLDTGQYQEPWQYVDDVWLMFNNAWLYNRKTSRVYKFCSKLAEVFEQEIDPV", "experiment": "Bromodomain binding affinity (tryptophan fluorescence binding assay)", "conditions": "over PCAF, BRD41, BAZ1B and BAZ2B", "method": "Monitoring change of intrinsic tryptophan fluorescence of a protein induced by ligand binding can be used to determine ligand binding affinity (KD). This assay was used to assess ligand binding to the CBP BRD and ischemin binding to the BRDs from other transcription proteins as follows. The chemical ligands were prepared at 500-850 μM in the PBS buffer. Their serial dilutions by a factor of 1.5 in a 384-wells black plate were carried out using a Tecan EVO200 liquid handler down to a concentration of 0.5 nM. Protein was added to the compounds to a final concentration in each well of 5 μM. Tryptophan fluorescence of the protein was measured (with excitation set at 280 nm, emission at 350 nm) on a Tecan Safire2 reader. Inner filter correction was introduced to take into account the possible intrinsic fluorescence of the compound. […] KD was calculated based on the curve fitting."}, "[3]": {"conditions": "ischemin 50 or 100 μM, 24 hours, U20S cells"}, "[4]": {"conditions": "nuclear extracts from U20S cells"}}}
{"compound": "Cc1cc(/N=N/c2cc(S(=O)(=O)O)c(C)cc2C)c(N)cc1O", "note": "[Ischemin/MS120, 5-(2-amino-4-hydroxy-5-methylphenylazo)-2,4-dimethylbenzenesulfonic acid]", "values": [{"measurement": "Level or functional phosphorylation state of ATM and CHK1", "setting": "p53 [1]; U20S cells, doxorubicin", "result": "did not affect"}, {"measurement": "Expression of p53 target genes p21, PUMA and 14-3-3s induced by doxorubicin", "setting": "p53 [1]; [3]", "result": "significantly decreased"}, {"measurement": "Levels of p53 protein, p53S15p and p53K382ac induced by doxorubicin", "setting": "p53 [1]; [3]", "result": "marked reduction"}, {"measurement": "H3 acetylation at Lys9", "setting": "p53 [1]; [4]", "result": "decrease"}, {"measurement": "Histone H3 phosphorylation at Ser10", "setting": "p53 [1]; [4]", "result": "increase"}, {"measurement": "Inhibition of p21 luciferase activity", "setting": "p53 [2]; U20S cells, FIG. 1A", "result": "Dose-dependent inhibition"}, {"measurement": "Ability to inhibit p53-dependent p21 luciferase activity / p21 expression (SAR, words)", "setting": "p53 [2]; compared with lead / ortho-methyl analogs", "result": "nearly completely suppresses"}, {"measurement": "inhibition at 50 µM", "setting": "p53 [2]; compounds at 50 μM, doxorubicin-treated U20S cells", "result": 104, "unit": "%"}, {"measurement": "Caspase 3/7 activity", "setting": "caspase 3/7", "result": "inhibiting caspase 3/7 activity in a dose-dependent manner"}, {"measurement": "Selectivity for the CBP BRD over other human BRDs", "setting": "CBP BRD", "result": "up to five-fold selectivity"}]}
